We go through 4 compounds from US20080069809A1, “Compositions and methods for the diagnosis and treatment of cancer” (priority 2006, published 2008).

Each structure is given as a SMILES string.

Type in all cases: cell-based
Test [1] has as its system KG1a. Nature of the test: Differentiation (CD11b expression) in KG1a cells. The conditions noted are these: agent alone. As to the method:
(§1) The myeloid leukemic cell lines HL60, NB60, NB4, U937, K562 and KG1a were all grown in RPMI 1640 medium (Life Technologies, Paisley, United Kingdom) supplemented with 10% v/v fetal calf serum (Sear Laboratories International Crawley, United Kingdom), 100 U/mL penicillin, and 100 μg/mL streptomycin (Sigma Aldrich, Poole, United Kingdom) at 37° C. and 5% v/v CO2. AML blasts were isolated from patient bone marrow aspirates and peripheral blood of eight patients at diagnosis or relapse. Patients were not receiving AML therapy at time of sampling. Blasts were isolated by Ficoll density centrifugation and were cultured in serum-free insulin transferrin selenium-positive (ITS+) medium (Life Technologies) containing 300 ng/mL stem cell factor (SCF) and 10 ng/mL interleukin 3 (IL3; R and D Systems, Abingdon, United Kingdom) and antibiotics. Blast purity ranged from 80% to 95%, as assessed by expression of CD34. Normal myeloblasts were isolated from cord blood or adult mobilized peripheral blood. Briefly, CD34^+ cells were indirectly selected from the mononuclear cell preparations using antibody-coated magnetic beads (Miltenyi Biotec, United Kingdom).
Cell differentiation was determined by staining of cells with anti-CD11b antibody as a general early marker of myeloid differentiation. In studies with HL60 cells, PEP005-treated and 20 nM phorbol myristate (PMA)-treated (Sigma Aldrich) cells were also assessed for their ability to phagocytose complement-coated yeast, a marker of a fully differentiated myeloid cell, as previously described (Toksoz et al, Leukemia Res 6:491-498, 1982). The ingestion of three or more yeasts was taken as a positive result. In normal cord blood or adult bone marrow myeloblasts, loss of CD34 was taken as a marker of differentiation. Isotype-matched controls were used and all antibodies were from DAKO (Cambridge, United Kingdom). […] Images were captured with a SPOT2 cameria (Diagnostic Instructions, Sterling Heights, Mich.) and analyzed using Image-Pro 4.0 software (Media Cybernetics, Silver Spring, Md.).

Test [2] concerns HL60. Nature of the test: Apoptosis (sub-G1 DNA by FACS, caspase-3 activation) in HL60 leukemic cells. Here is the method: as §1, with “Blast purity ranged from 80% to 95%, as assessed by expression of CD34.” left out
To determine the effects of ingenol-3-angelate (PEP005), cells were incubated for up to 5 days with medium alone or PEP005 at a range of concentrations from 0.2 nM to 20 μM. PEP005 was extracted from Euphorbia peplus and supplied as a 98.5% pure preparation by Peplin Limited (Brisbane, Australia) as a dry pellet and was made up to a stock of […] in acetone on a weekly basis. Stocks were stored at 4° C. and diluted into medium when required. Final acetone concentration was never more than 0.1% v/v. Apoptosis and differentiation were assessed after 1 to 5 days.
On the technique in general: In flow cytometry, cells or beads pass a laser one at a time.

Test [3] relates to HL60. Nature of the test: Phagocytosis of complement-coated yeast by HL60 cells. Particulars: after 3 days of treatment, PMA 20 nM. As to the method:
Cell differentiation was determined by staining of cells with anti-CD11b antibody as a general early marker of myeloid differentiation. In studies with HL60 cells, PEP005-treated and 20 nM phorbol myristate (PMA)-treated (Sigma Aldrich) cells were also assessed for their ability to phagocytose complement-coated yeast, a marker of a fully differentiated myeloid cell, as previously described (Toksoz et al, Leukemia Res 6:491-498, 1982). The ingestion of three or more yeasts was taken as a positive result. In normal cord blood or adult bone marrow myeloblasts, loss of CD34 was taken as a marker of differentiation. Isotype-matched controls were used and all antibodies were from DAKO (Cambridge, United Kingdom). […] Cells were also used to prepare cytospins, which were then differentially stained using a commercial May-Grünwald-Ginesa stain (Diff-Kwik; Gamidor, Abingdon, United Kingdom) to identify cells with a blast or differentiated or apoptotic morphology. Slides were examined using a Zeiss III RS brightfield microscope equipped with a 40×/0.75 water-immersion objective (Carl Zeiss, Jena, Germany). Images were captured with a SPOT2 cameria (Diagnostic Instructions, Sterling Heights, Mich.) and analyzed using Image-Pro 4.0 software (Media Cybernetics, Silver Spring, Md.).

Test [4] concerns the target T1, PKC-δ (Homo sapiens, UniProt Q05655).
T1 construct: endogenous in cells; host or cells: HL60
Description: PKC-δ activation by translocation (cell fractionation, Western blotting) in HL60 cells. The conditions noted are these: 20 nM PEP005 or 20 nM PMA, 10 minutes. As to the method:
PKC translocates from the soluble to the particulate fraction of cells when activated and this method was used to assess activation of PKC-δ by PEP005 and PMA. Briefly, cells were incubated for 10 minutes in medium alone or 20 nM PEP005 or 20 nM PMA, washed twice in phosphate buffered saline (PBS) and then lysed by homogenization in hypotonic lysis buffer in the absence of detergent. Lysis was checked using trypan blue uptake. Nuclei were isolated by centrifugation at 1000 g for 10 minutes. Centrifugation at 100,000 g for 45 minutes at 4° C. was used to isolate the cytosol (supernatant) and cell membrane (pellet) fractions. All were taken up in SDS sample buffer and analyzed for PKC-δ by Western blotting.
A general note: Immunoblotting shows a protein as a band on a membrane.

Test [5] concerns caspase-3. Description: Caspase-3 phosphorylation in 32PO4-labeled HL60 cells. Particulars: 20 nM PEP005 and 5 μM rottlerin. As to the method:
To determine if PEP005 induced caspase-3 phosphorylation, HL60 cells were incubated with 1.5×10^7 Bq/mL ^32PO4 (Amersham Pharmacia) in phosphate-free medium for 3 hours prior to addition of 20 nM PEP005 or PEP005 and 5 μM rottlerin (Calbiochem, Nottingham, United Kingdom). Cells were then lysed and caspase-3 was immunoprecipitated with an anti-caspase-3 antibody (BD Pharmingen, Oxford, United Kingdom) or an irrelevant isotype-matched control antibody (DAKO) and the immunoprecipitate was isolated using an anti-mouse immunoglobulin G (IgG) antibody (DAKO) and protein G-coated magnetic beads (microbeads; Miltenyi Biotech). The isolate was taken up in SDS sample buffer and run on a 10% w/v SDS-polyacrylamide gel electrophoresis (PAGE) gel and the labeled proteins were visualized using a phosphorimager.

T1 sequence (Q05655 whole entry): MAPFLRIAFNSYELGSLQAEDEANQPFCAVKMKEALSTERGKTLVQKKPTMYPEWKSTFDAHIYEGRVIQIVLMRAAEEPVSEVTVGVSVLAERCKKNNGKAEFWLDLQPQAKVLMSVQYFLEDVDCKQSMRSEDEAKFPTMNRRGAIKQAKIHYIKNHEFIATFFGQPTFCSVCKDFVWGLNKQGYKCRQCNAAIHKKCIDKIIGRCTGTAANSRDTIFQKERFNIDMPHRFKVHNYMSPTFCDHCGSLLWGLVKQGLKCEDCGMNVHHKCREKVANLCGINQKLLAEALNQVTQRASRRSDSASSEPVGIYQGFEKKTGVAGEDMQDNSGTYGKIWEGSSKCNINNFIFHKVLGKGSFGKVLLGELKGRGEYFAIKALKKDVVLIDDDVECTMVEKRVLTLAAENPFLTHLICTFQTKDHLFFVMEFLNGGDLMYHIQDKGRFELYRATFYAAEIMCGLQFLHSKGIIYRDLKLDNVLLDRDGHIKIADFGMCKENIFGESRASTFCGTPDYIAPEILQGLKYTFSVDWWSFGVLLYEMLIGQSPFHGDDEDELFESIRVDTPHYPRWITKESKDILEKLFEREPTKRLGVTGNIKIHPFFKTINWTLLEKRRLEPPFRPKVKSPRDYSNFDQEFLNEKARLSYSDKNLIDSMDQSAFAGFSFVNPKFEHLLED

`CC1=C(/C=C/C(C)=C/C=C/C(C)=C/C(=O)O)C(C)(C)CCC1` [ATRA, all-trans retinoic acid, reference compound]: the differentiation response result in test [1] was “did not respond”.
For `CCCCCCCCCCCCCC(=O)O[C@@H]1[C@@H](C)[C@@]2(O)[C@@H](C=C(CO)C[C@]3(O)C(=O)C(C)=C[C@@H]23)[C@@H]2C(C)(C)[C@]12OC(C)=O` [PMA, phorbol myristate, reference compound], the “apoptosis (caspase-3 activity)” value in test [2] (after 3 days of treatment, PMA 20 nM) is “no increase in apoptosis”. Also, in test [3], the “differentiation to phagocytes (ability to phagocytose yeast)” value is “induced differentiation of HL60 cells toward phagocytes”. For the same compound, the “site of initial PKC-δ translocation” value in test [4] is recorded as “only to the cell membrane”.
With `CN(C)CCCn1cc(C2=C(c3c[nH]c4ccccc34)C(=O)NC2=O)c2ccccc21` [bisindolylmaleimide I, reference compound], the “inhibition of PEP005-induced apoptosis (caspase-3 activation)” value in test [2] (20 nM PEP005 with 1 μM Bis-1 or 20 nM Go6976) is given as “inhibited”.
As to `CC(=O)c1c(O)c(C)c(O)c(Cc2c(O)c3c(c(C(=O)/C=C/c4ccccc4)c2O)OC(C)(C)C=C3)c1O` [rottlerin, reference compound], the “effect on PEP005-induced caspase-3 phosphorylation” value in test [5] is recorded as “ablated”.
